In paper PMC5770598, “Small molecules targeted to the microtubule–Hec1 interaction inhibit cancer cell growth through microtubule stabilization” (Oncogene, 2017):

Columns and labels:
[1] = target: T1, MTs (assembled microtubules); assay: SPR, steady-state Scatchard plot; format: binding; conditions: microtubules immobilised on COOH5 chip; pH 7.4, 10 mM Hepes, 150 mM NaCl, 2 mM MgCl2, 0.05% P20, 2% DMSO; error printed as ±0.1
T1 construct: gene alpha-tubulin; assembled microtubules (polymer of alpha/beta-tubulin dimers), 6050 RU amine-coupled to COOH5 chip

tubulin (dimeric) = target: T2, tubulin (dimeric); assay: SPR, steady-state Scatchard plot; format: binding; conditions: tubulin dimers immobilised on COOH5 chip; pH 7.4, 10 mM Hepes, 150 mM NaCl, 2 mM MgCl2, 0.05% P20, 2% DMSO
T2 construct: gene alpha-tubulin; unassembled alpha/beta-tubulin dimer, 3900 RU amine-coupled to COOH5 chip

Kd [1]: 940 ± 130 nM
Kd (tubulin (dimeric)): 1800 ± 400 nM
Compound: O=C(/C=C/c1cn(CC(O)CN2CCCCC2)c2ccccc12)c1ccc(Br)cc1 (centres unmarked) [SM15]
